Data reported in publication PMC7955127, “Preclinical small molecule WEHI-7326 overcomes drug resistance and elicits response in patient-derived xenograft models of human treatment-refractory tumors” (Cell Death & Disease, 2021).

Assay: Acute toxicity study, single intravenous dose (non-GLP)
Assay type: in vivo, Sprague-Dawley rats
Conditions: for PT / Phosphate / Potassium / Protein (Total) / RBC / Retc. / Sodium / Triglycerides / Urea / WBC / Multifocal red petechiae on all lung lobes (incidence at necropsy) / Smaller right teste (incidence at necropsy) / Testes noted to have a soft consistency (incidence at necropsy) / White streaks though one or both testes (incidence at necropsy) / ALP / ALT / APTT / AST / Albumin / Albumin/Globulin / Bilirubin (Total) / Calcium / Chloride / Cholesterol / Creatinine / Globulin / Glucose / HCT / HGB / MCH / MCHC / MCV / PLT: day 15; for PT / Phosphate / Potassium / Protein (Total) / RBC / Retc. / Sodium / Triglycerides / Urea / WBC / ALP / ALT / APTT / AST / Albumin / Albumin/Globulin / Bilirubin (Total) / Calcium / Chloride / Cholesterol / Creatinine / Globulin / Glucose / HCT / HGB / MCH / MCHC / MCV / PLT: mean ± SD
Method: This acute toxicity study included a satellite group for toxicokinetic assessment. The toxicity study was comprised of 12 male and 12 female rats, which were allocated into four groups of three males and three females. The toxicity of the test substance, WEHI-7326 dihydrochloride (referred to as WEHI-7326 from here), was tested at three dose concentrations of 5 mg/kg, 15 mg/kg and 30 mg/kg administered as a single dose via intravenous tail vein injection. The vehicle control, D-(+)-Glucose, was formulated at 5% w/v and administered per the above regime. On Study Day 15, all animals were terminated with blood collected for biochemistry, haematology and coagulation analysis before undergoing gross necropsy by a US board certified veterinary pathologist. The toxicokinetic satellite group comprised of 30 male rats which were allocated into four groups of three males in the vehicle control group and nine males in each of the three treatment groups. All treatment group animals were then allocated into three subgroups (A, B and C) and bled pre-dose, then 2min, 10min, 0.5h, 2h, 6h, 12h and 24h post-dose. All vehicle control group animals weren’t allocated to a specific subgroup but were bled at 10min and 12h post-dose. All TK animals were then terminated after the final blood collection. Dosing was suspended on Study Day 1 for both the Toxicity and Toxicokinetic Study animals following adverse reactions which lead to the early termination of two animals (one male treated with mid-dose WEHI-7326 from the Toxicity Study and one male treated with high-dose WEHI-7326 from the Toxicokinetic Study) approximately 5-10 minutes post-treatment. After consultation with the Sponsor, the following changes were made to the Study Design:
At the revised high dose of 20mg/kg, all male rats had to be terminated prematurely also due to reaching their body weight loss endpoint of >10% loss. […] Significant findings in clinical pathology outcomes were considered incidental and unrelated to test article treatment. The majority of macroscopic findings at necropsy were also considered to be incidental, however the findings of white streaks through the testes of male animals treated with WEHI-7326 may be related to treatment. Body weights were measured once prior to dose administration, then daily for the duration of the study and at termination. Clinical observations were performed on a daily basis.
The study followed test guideline OECD No. 420 (2001) “Acute Oral Toxicity - Fixed Dose Procedure” with the exception that the route of administration was intravenous (i.v.).

[1] = female rats, 20 mg/kg single i.v.
[2] = male rats, 15 mg/kg single i.v.
[3] = male rats, 20 mg/kg single i.v.

## COc1ccc(CNc2nc(NCc3ccc(CN)cc3)nc(NN3CC(=O)NC3=O)n2)cc1 [WEHI-7326]
[1]
  PT: 21.8 ± 0.8 s
  Phosphate: 1.85 ± 0.15 mM
  Potassium: 4.72 ± 0.20 mM
  Protein (Total): 64.3 ± 1.2 g/L
  RBC: 7.27 ± 0.15 10^12/L
  Retc.: 4.75 ± 1.82%
  Sodium: 139 ± 1 mM
  Triglycerides: 0.96 ± 0.50 mM
  Urea: 6.37 ± 0.39 mM
  WBC: 7.85 ± 1.07 10^9/L
Male rats, 5 mg/kg single i.v.
  Body weight loss >10% (termination required) (incidence): 0/3
  Discharge from nose on study day 2 (incidence): 0/3
  Hunched posture with half shut eyes on Study Day 3 (incidence): 0/3
  Labored breathing, severely affected gait and lack of response to stimuli post-dose (termination required) (incidence): 0/3
  Mild impairment of gait and lack of response to stimuli postdose, resolved 2 hours post treatment (incidence): 0/3
  No remarkable observations (incidence): 3/3
  Red stained right eye on study day 2 and 3 (incidence): 0/3
  Multifocal red petechiae on all lung lobes (incidence at necropsy): 0/3
  Smaller right teste (incidence at necropsy): 1/3
  Testes noted to have a soft consistency (incidence at necropsy): 0/3
  White streaks though one or both testes (incidence at necropsy): 3/3
  ALP: 528 ± 112 U/L
  ALT: 66 ± 17 U/L
  APTT: 16.8 ± 1.3 s
  AST: 114 ± 16 U/L
  Albumin: 36.6 ± 4.1 g/L
  Albumin/Globulin: 1.4 ± 0.2 Ratio
  Bilirubin (Total): 0.4 ± 0.1 µM
  Calcium: 2.67 ± 0.12 mM
  Chloride: 102.9 ± 5.3 mM
  Cholesterol: 1.81 ± 0.18 mM
  Creatinine: 25 ± 5 µM
  Globulin: 25.3 ± 1.6 g/L
  Glucose: 7.70 ± 0.82 mM
  HCT: 0.52 ± 0.01 L/L
  HGB: 151.7 ± 3.1 g/L
  MCH: 19.70 ± 0.85 pg
  MCHC: 294.0 ± 5.0 g/L
  MCV: 67.2 ± 3.5 fL
  PLT: 1025.0 ± 167.5 10^9/L
  PT: 19.5 ± 0.3 s
  Phosphate: 2.07 ± 0.24 mM
  Potassium: 5.23 ± 0.33 mM
  Protein (Total): 61.9 ± 5.8 g/L
  RBC: 7.71 ± 0.45 10^12/L
  Retc.: 4.57 ± 1.00%
  Sodium: 143 ± 10 mM
  Triglycerides: 1.65 ± 0.18 mM
  Urea: 6.11 ± 0.96 mM
  WBC: 14.83 ± 1.08 10^9/L
[2]
  Body weight loss >10% (termination required) (incidence): 2/4
  Discharge from nose on study day 2 (incidence): 0/4
  Hunched posture with half shut eyes on Study Day 3 (incidence): 0/4
  Labored breathing, severely affected gait and lack of response to stimuli post-dose (termination required) (incidence): 1/4
  Mild impairment of gait and lack of response to stimuli postdose, resolved 2 hours post treatment (incidence): 0/4
  No remarkable observations (incidence): 1/4
  Red stained right eye on study day 2 and 3 (incidence): 1/4
  Multifocal red petechiae on all lung lobes (incidence at necropsy): 0/1
  Smaller right teste (incidence at necropsy): 0/1
  Testes noted to have a soft consistency (incidence at necropsy): 1/1
  White streaks though one or both testes (incidence at necropsy): 1/1
  ALP: 306 ± 0 U/L
  ALT: 61 ± 0 U/L
  APTT: 20.2 ± 0.0 s
  AST: 108 ± 0 U/L
  Albumin: 32.3 ± 0 g/L
  Albumin/Globulin: 1.3 ± 0 Ratio
  Bilirubin (Total): 0.9 ± 0 µM
  Calcium: 2.50 ± 0 mM
  Chloride: 100.4 ± 0 mM
  Cholesterol: 1.65 ± 0 mM
  Creatinine: 23 ± 0 µM
  Globulin: 25.8 ± 0 g/L
  Glucose: 7.13 ± 0 mM
  HCT: 0.46 ± 0.00 L/L
  HGB: 138.0 ± 0.0 g/L
  MCH: 18.00 ± 0.00 pg
  MCHC: 297.0 ± 0.0 g/L
  MCV: 60.40 ± 0.0 fL
  PLT: 1075 ± 0.0 10^9/L
  PT: 18.4 ± 0.0 s
  Phosphate: 2.07 ± 0 mM
  Potassium: 4.78 ± 0 mM
  Protein (Total): 58.1 ± 0 g/L
  RBC: 7.68 ± 0.00 10^12/L
  Retc.: 2.70 ± 0.00%
  Sodium: 138 ± 0 mM
  Triglycerides: 0.97 ± 0 mM
  Urea: 4.02 ± 0 mM
  WBC: 10.89 ± 0.00 10^9/L
[3]
  Body weight loss >10% (termination required) (incidence): 3/3
  Discharge from nose on study day 2 (incidence): 3/3
  Hunched posture with half shut eyes on Study Day 3 (incidence): 3/3
  Labored breathing, severely affected gait and lack of response to stimuli post-dose (termination required) (incidence): 0/3
  Mild impairment of gait and lack of response to stimuli postdose, resolved 2 hours post treatment (incidence): 3/3
  No remarkable observations (incidence): 0/3
  Red stained right eye on study day 2 and 3 (incidence): 0/3
  Multifocal red petechiae on all lung lobes (incidence at necropsy): 0/0
  Smaller right teste (incidence at necropsy): 0/0
  Testes noted to have a soft consistency (incidence at necropsy): 0/0
  White streaks though one or both testes (incidence at necropsy): 0/0
